This passage reports viability, IC50 and inhibition results from patent US11633394B2, “Substituted alkynylene compounds as anticancer agents” (Aurigene Oncology Limited, priority 2018, dated 2023).

Common to all, as to type: cell-based
One test has as its system NCI-H2122 cells. In words: Anti proliferative activity in NCI-H2122 cells by XTT assay. The following applies: Homo sapiens, NCI-H2122, 192 h, H2122 cell line; for viability at 30 µM: 8 days; for IC50: 8 days (192 hour) incubation. As for the experimental part:
Example 79: Determination of Anti Proliferative Activity in NCI-H2122 Cells by XTT Assay
NCI-H2122 cells (ATCC CRL-5985) were plated at 1000 cells/well in 96 well flat clear bottom plates (Corning, Cat. No 3596) using complete RPMI-1640 media. After 24 hours, compounds of present invention were added to cells from 10 mM stocks made in DMSO (Sigma Cat no. D2650). Each concentration of compound was tested in triplicate with DMSO concentration not exceeding a final percentage of 0.3 in the cells. Complete RPMI-1640 media changed at Day 3 (72 hour) and Day 6 (144 hour) along with compounds of current invention. After 8 days (192 hour) of incubation assay terminated using 50 μl of XTT reagent (Invitrogen, Cat. no X6493). XTT reagent was made by dissolving 1 mg/mi XTT in serum free media with addition of 25 μM Phenazine methosulfate (sigma Cat. no P9625). Absorbance readings were taken in spectrophotometer at 465 nm. The data was analysed using graph pad prism software. Positive control (100% survival)=Cells in complete media with 0.3% DMSO; Negative control/blank (0% survival)=Media alone containing 0.3% DMSO.
(§1) The compounds of the present invention were screened in the above mentioned assay and the results are tabulated below.
(In general: Tetrazolium assays rely on reduction of a dye to a coloured formazan, in cell work by metabolically active cells.)

Another test relates to NCI-H1792 cells. In words: Anti proliferative activity in NCI-H1792 cells by XTT assay. To be noted: Homo sapiens, NCI-H1792, 72 h, H1792 cell line. As for the experimental part: Example 78: Determination of Anti Proliferative Activity in NCI-H1792 Cells by XTT Assay
NCI-H1792 cells (ATCC CRL-5895) were plated at 2000 cells/well in 96 well flat clear bottom plates (Corning, Cat. No 3596) using complete RPMI media. After 24 hours, compounds of present invention were added to cells from 20 mM stocks made in DMSO (Sigma Cat no. D2650). Each concentration of compound was tested in triplicate with DMSO concentration not exceeding a final percentage of 0.3 in the cells. After 72 hours of incubation in CO2 incubator, XTT (Invitrogen, Cat. no X6493) was added to the wells. XTT was dissolved in serum free media at 1 mg/ml and absorbance readings were taken in spectrophotometer at 465 nm. The data was analysed using graph pad prism software. Positive control (100% survival)=Cells in complete media with 0.3% DMSO; Negative control/blank (0% survival)=Media alone containing 0.3% DMSO.
as §1

The next test relates to OCI-Ly10 cells. In words: Anti proliferative activity in OCI-Ly10 cells (CTG luminescence). The following applies: Homo sapiens, OCI-Ly10, 72 h. As for the experimental part: Example 80: Determination of Anti Proliferative Activity in OCI-Ly10 Cells
OCI-Ly10 cells (UHN Canada) were plated at 7500 cells/well in 96 well flat bottom plates (Corning, Cat. No CLS3904) using complete Iscove's Modified Dulbecco's Medium (IMDM. After 6 hours, compounds from the present invention were added to the cells from 10 mM stocks made in DMSO (Sigma, Cat. No D2650). Each concentration of compound was tested in triplicates with DMSO concentration not exceeding a final percentage of 0.1 in the cells. After 72 hours of incubation in CO2 incubator, CTG (Promega, Cat. No G7572) was added to the wells and Luminescence readings were taken in the plate reader. Percent inhibition in proliferation was calculated using Microsoft Excel software. Positive control (100% survival)=Cells in complete media with 0.1% DMSO; Negative control/blank (0% survival)=Media alone containing 0.1% DMSO.

In general, viability refers to a read-out of living cells in per cent, often relative to untreated cells. A higher viability goes with better survival. The term IC50 denotes the point on the concentration scale where inhibition reaches its midpoint. One may read the inhibition as the share of the control response that was lost under treatment. Read a high inhibition as strong suppression.

In turn, `C=CS(=O)(=O)N[C@H]1CC[C@@H](NC(=O)NC(C)C#Cc2ccc(Cl)c(Cl)c2)CC1` (mixture of isomers) [Example 50, N-((1s, 4s)-4-(3-(4-(3,4-dichlorophenyl)but-3-yn-2-yl)ureido)cyclohexyl) ethenesulfonamide] registered a viability at 30 µM with NCI-H2122 cells of 1%. This compound showed an IC50 with NCI-H1792 cells (72 hours incubation) of under 10 µM. Also, the viability at 30 µM in the test on NCI-H1792 cells (at 30 μM, 72 hours) worked out at 17%. In the test with OCI-Ly10 cells, this compound registered an inhibition at 1 µM of 32% and an inhibition at 10 µM of 48%.
As to `C=CC(=O)N1CCN(C(=O)NC2(C#Cc3ccc(Cl)c(Cl)c3)CC2)CC1` [Example 23], in the test on NCI-H2122 cells, the IC50 is under 10 µM and the viability at 30 µM amounted to 21%. Besides, in the test on OCI-Ly10 cells, 1 µM produced 48% inhibition and the inhibition at 10 µM came out at 67%.
Take `C=CC(=O)N1CCN(C(=O)NC2(C#Cc3ccc(Cl)c(Cl)c3)CCCC2)CC1` [Example 24]: the IC50 with NCI-H2122 cells is under 10 µM. In the test with OCI-Ly10 cells, this compound registered an inhibition at 1 µM of 35% and an inhibition at 10 µM of 68%.
In the test on NCI-H2122 cells, `C=CC(=O)N1CCN(C(=O)NC(C)C#Cc2ccc(Oc3ccccc3)c(Cl)c2)CC1` (stereo not drawn) [Example 25] displayed an IC50 of 10 to 25 µM and a viability at 30 µM of 16%. In the test with OCI-Ly10 cells, this compound gave an inhibition at 1 µM of 3% and an inhibition at 10 µM of 72%.
On to `C=CC(=O)N1CC(N2CCN(C(=O)NC(C)C#Cc3ccc(Cl)c(C4(C)CC4)c3)CC2)C1` (stereo not drawn) [Example 29], for which the IC50 in the test on NCI-H2122 cells was under 10 µM. For the same compound, in the test on OCI-Ly10 cells, 1 µM produced 42% inhibition and at 10 µM the inhibition was 90%.
As for `C=CS(=O)(=O)N1CCN(C(=O)NC2(C#Cc3ccc(Cl)c(Cl)c3)CC2)CC1` [Example 51, N-(1-((3,4-dichlorophenyl)ethynyl)cyclopropyl)-4-(vinylsulfonyl) piperazine-1-carboxamide], in the test on NCI-H2122 cells, the viability at 30 µM is 0%. In the test on OCI-Ly10 cells, this compound showed an inhibition at 1 µM of 3% and an inhibition at 10 µM of 52%.
In the test with NCI-H2122 cells, `CC(C#Cc1ccc(Cl)c(Cl)c1)NC(=O)N1CCC(N2C(=O)C=CC2=O)CC1` (stereo not drawn) [Example 59] had an IC50 of under 10 µM and a viability at 30 µM of 0%. In the test with OCI-Ly10 cells, this compound displayed an inhibition at 1 µM of 25% and an inhibition at 10 µM of 100%.
Turning to `C=CC(=O)N1CCN(C(=O)NC(C)C#Cc2ccc(C#N)c(C(F)(F)F)c2)CC1` (stereo not drawn) [Example 63], in the test on NCI-H2122 cells, the IC50 was under 10 µM and the viability at 30 µM amounted to 18%. In the test on OCI-Ly10 cells, this compound gave an inhibition at 1 µM of 49% and an inhibition at 10 µM of 79%.
In the test with NCI-H2122 cells, `O=C(/C=C/C(F)(F)F)N1CCN(C(=O)NC2(C#Cc3ccc(Cl)c(Cl)c3)CC2)CC1` [Example 66, (E)-N-(1-((3,4-dichlorophenyl)ethynyl)cyclopropyl)-4-(4,4,4-trifluorobut-2-enoyl) piperazine-1-carboxamide] returned an IC50 of under 10 µM. Also, in the test with OCI-Ly10 cells, the inhibition at 1 µM amounted to 75% and at 10 µM the inhibition was 73%.
